Drawing on ChEMBL document CHEMBL5528046, “Discovery of Novel PROTAC Degraders of p300/CBP as Potential Therapeutics for Hepatocellular Carcinoma” (J Med Chem, 2024), this text covers Activity and IC50 for 23 molecules.

Active and inactive are the calls of the source. The rule behind the calls is not given here.

Test [1] addresses T1, Protein cereblon/Histone acetyltransferase p300 (Homo sapiens, UniProt Q09472+Q96SW2). Kind of test: PROTAC activity at CRBN/p300 in human SK-HEP1 cells assessed as induction of p300 protein degradation at 1 uM incubated for 24 hrs relative to control. It counts as cell-based.
Test [2] deals with T1, Protein cereblon/Histone acetyltransferase p300. Put plainly: PROTAC activity at CRBN/p300 in human SK-HEP1 cells assessed as induction of p300 protein degradation at 0.01 uM incubated for 24 hrs relative to control. It is filed as cell-based.
For test [3] the target is unchanged. Kind of test: PROTAC activity at CRBN/p300 in human SK-HEP1 cells assessed as induction of p300 protein degradation at 0.1 uM incubated for 24 hrs relative to control. It is filed as cell-based.
Test [4] relates to SK-HEP1. Kind of test: Induction of cell cycle arrest at G2/M phase in human SK-HEP1 cells assessed as SKP2 protein level at 2 uM incubated for 24 hrs by immunoblotting analysis (reference value: 100%). It is filed as functional. Background: Immunoblotting shows a protein as a band on a membrane.
A further test has as its system Mus musculus. Kind of test: In vivo PROTAC activity at CRBN/p300 in nude mouse xenografted with human SK-HEP1 cells assessed as reduction in p300 protein level in tumor at 50 mg/kg, ip measured after 24 hrs by immunoblotting analysis. It is filed as functional, organism-based. A general note: In xenograft studies the graft and the host belong to different species.

The target in test [5] is CREB-binding protein/Histone acetyltransferase p300 (Homo sapiens, UniProt Q09472+Q92793). Kind of test: Inhibition of p300/CBP (unknown origin) using histone H3 (1 to 21 residues) as substrate incubated for 90 mins by AlphaLISA assay. It counts as protein assay.
The target of test [6] is T1, Protein cereblon/Histone acetyltransferase p300. Kind of test: PROTAC activity at CRBN/p300 in human SK-HEP1 cells assessed as increase in protein ubiquitination at 2 uM pretreated with MG132 at 1 uM followed by compound treatment and further incubated for 24 hrs by immunoblotting analysis (reference value: 100%). It is filed as cell-based.
Test [7] shares this target. Put plainly: PROTAC activity at CRBN/p300 in human SK-HEP1 cells assessed as increase in protein ubiquitination at 2 uM incubated for 24 hrs by immunoblotting analysis (reference value: 100%). It counts as cell-based.
For test [8], the system named is SK-HEP1. Kind of test: Induction of cell cycle arrest at G2/M phase in human SK-HEP1 cells assessed as reduction in CDK6 protein level at 2 uM incubated for 24 hrs by immunoblotting analysis (reference value: 100%). It is filed as functional. The arrangement: scale not given: the % may be the effect or the level left.
Test [9] deals with Protein cereblon/CREB-binding protein (Homo sapiens) (UniProt Q92793+Q96SW2). Put plainly: In vivo PROTAC activity at CRBN/CBP in nude mouse xenografted with human SK-HEP1 cells assessed as reduction in CBP protein level in tumor at 50 mg/kg, ip measured after 24 hrs by immunoblotting analysis. It counts as functional, organism-based.
A short description of test [10]: Antiproliferative activity against human JHH7 cells assessed as inhibition of cell growth incubated for 5 days by CCK-8 assay. It is filed as functional, cell-based. To be noted: JHH7, 120 h. A general note: Tetrazolium assays rely on reduction of a dye to a coloured formazan, in cell work by metabolically active cells.
In test [11] the test system is SK-HEP1. Kind of test: Antiproliferative activity against human SK-HEP1 cells assessed as inhibition of cell growth incubated for 5 days by CCK-8 assay. It counts as functional, cell-based. To be noted: SK-HEP1, 120 h.

T1 sequence (Q09472 2-2414 limits assumed): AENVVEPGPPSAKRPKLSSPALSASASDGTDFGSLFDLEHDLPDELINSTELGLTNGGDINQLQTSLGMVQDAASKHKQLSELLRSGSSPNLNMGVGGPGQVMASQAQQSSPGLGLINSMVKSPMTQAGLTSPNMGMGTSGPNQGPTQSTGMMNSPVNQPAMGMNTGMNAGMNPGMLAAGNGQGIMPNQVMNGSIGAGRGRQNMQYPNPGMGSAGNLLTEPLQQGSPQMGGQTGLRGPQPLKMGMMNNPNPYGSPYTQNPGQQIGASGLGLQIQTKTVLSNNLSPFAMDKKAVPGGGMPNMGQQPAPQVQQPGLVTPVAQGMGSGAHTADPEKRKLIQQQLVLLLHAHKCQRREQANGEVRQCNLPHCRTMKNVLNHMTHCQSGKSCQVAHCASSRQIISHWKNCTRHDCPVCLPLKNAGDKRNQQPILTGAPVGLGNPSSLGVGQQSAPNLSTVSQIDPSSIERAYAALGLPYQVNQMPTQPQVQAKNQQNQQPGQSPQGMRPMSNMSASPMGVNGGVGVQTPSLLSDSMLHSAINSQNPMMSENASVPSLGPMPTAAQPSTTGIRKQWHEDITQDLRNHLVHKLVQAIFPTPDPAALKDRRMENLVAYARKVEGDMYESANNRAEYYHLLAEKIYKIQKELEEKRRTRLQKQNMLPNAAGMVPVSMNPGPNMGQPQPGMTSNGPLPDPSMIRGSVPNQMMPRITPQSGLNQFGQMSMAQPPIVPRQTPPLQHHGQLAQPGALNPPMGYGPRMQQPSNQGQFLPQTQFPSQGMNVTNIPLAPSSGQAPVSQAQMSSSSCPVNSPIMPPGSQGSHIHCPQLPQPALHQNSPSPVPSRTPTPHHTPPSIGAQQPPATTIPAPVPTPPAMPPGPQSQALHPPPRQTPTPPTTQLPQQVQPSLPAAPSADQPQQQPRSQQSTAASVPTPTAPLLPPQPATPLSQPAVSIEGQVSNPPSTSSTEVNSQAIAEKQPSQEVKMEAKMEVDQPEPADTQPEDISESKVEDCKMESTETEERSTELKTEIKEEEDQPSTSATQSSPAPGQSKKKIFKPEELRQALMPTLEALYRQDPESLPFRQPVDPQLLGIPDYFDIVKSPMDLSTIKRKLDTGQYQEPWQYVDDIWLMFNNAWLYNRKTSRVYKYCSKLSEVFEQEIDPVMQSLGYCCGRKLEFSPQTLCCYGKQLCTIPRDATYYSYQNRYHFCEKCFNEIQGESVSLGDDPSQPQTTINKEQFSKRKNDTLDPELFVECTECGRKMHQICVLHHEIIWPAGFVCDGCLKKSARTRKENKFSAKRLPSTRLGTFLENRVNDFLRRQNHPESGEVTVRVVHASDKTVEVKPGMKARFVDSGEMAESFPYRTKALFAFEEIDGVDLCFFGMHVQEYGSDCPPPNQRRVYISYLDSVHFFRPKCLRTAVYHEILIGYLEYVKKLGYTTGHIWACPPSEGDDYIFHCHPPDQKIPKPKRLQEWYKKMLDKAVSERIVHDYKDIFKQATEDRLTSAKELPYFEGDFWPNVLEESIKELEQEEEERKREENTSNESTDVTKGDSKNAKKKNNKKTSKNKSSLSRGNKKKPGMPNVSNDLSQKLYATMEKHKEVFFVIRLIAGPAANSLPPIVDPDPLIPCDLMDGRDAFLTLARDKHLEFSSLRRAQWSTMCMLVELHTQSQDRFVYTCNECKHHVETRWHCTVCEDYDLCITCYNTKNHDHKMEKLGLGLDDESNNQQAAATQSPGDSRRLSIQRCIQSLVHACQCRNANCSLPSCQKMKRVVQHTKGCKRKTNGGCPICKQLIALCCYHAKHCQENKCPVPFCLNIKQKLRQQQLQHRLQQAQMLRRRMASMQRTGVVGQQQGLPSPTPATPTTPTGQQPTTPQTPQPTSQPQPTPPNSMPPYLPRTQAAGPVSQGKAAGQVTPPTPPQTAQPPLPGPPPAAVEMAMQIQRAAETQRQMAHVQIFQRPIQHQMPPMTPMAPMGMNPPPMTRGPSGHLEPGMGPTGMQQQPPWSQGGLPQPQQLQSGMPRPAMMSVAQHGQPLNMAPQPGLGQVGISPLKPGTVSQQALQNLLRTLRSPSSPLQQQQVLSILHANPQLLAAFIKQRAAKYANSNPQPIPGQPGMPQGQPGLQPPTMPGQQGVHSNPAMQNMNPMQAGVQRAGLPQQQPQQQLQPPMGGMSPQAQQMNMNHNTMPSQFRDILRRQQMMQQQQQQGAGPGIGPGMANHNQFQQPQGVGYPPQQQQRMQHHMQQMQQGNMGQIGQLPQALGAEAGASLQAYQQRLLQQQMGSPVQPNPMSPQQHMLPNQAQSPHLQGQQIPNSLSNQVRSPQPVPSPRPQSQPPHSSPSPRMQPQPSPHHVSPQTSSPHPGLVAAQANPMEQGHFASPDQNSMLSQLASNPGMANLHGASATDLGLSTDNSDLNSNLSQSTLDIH
T1 sequence (Q96SW2 whole entry partner): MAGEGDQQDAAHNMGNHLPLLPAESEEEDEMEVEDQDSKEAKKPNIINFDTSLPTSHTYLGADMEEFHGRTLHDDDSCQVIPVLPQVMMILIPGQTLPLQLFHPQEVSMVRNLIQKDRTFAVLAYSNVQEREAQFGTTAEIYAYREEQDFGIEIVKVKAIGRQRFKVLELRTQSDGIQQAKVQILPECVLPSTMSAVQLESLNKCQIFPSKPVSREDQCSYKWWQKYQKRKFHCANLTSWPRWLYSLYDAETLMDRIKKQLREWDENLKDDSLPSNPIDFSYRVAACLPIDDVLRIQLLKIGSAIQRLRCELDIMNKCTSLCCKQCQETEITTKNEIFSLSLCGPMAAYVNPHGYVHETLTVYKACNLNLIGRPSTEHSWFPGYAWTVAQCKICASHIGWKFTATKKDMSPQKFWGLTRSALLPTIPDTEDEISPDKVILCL

Take `Cc1noc(C)c1-c1ccc2c(c1)nc([C@@H]1CCCC(=O)N1c1ccc(F)c(F)c1)n2C1CCN(C(=O)CCOCCNc2ccc3c(c2)C(=O)N(C2CCC(=O)NC2=O)C3=O)CC1` (stereo partly specified): the Activity in [1] was 18%; in [2], under 1%; in test [3] it was under 1%.

Take `Cc1noc(C)c1-c1ccc2c(c1)nc([C@@H]1CCCC(=O)N1c1ccc(F)c(F)c1)n2C1CN(C2CN(c3ccc4c(c3)C(=O)N(C3CCC(=O)NC3=O)C4=O)C2)C1` (stereo partly specified): the Activity in [1] is 27%; in test [2] it was under 1%; in test [3], under 1%.

Regarding `Cc1noc(C)c1-c1ccc2c(c1)nc([C@@H]1CCCC(=O)N1c1ccc(F)c(F)c1)n2C1CCN(C2CCN(c3cccc4c3C(=O)N(C3CCC(=O)NC3=O)C4=O)CC2)CC1` (stereo partly specified), the Activity in test [1] was found to be 9%; in test [2], 4%; in test [3], 6%.

As for `Cc1noc(C)c1-c1ccc2c(c1)nc([C@@H]1CCCC(=O)N1c1ccc(F)c(F)c1)n2C1CCN(c2ccc3c(c2)C(=O)N(C2CCC(=O)NC2=O)C3=O)CC1` (stereo partly specified), the Activity stood at 32% in test [1], 6% in test [2] and 9% in [3].

On to `Cc1noc(C)c1-c1ccc2c(c1)nc([C@@H]1CCCC(=O)N1c1ccc(F)c(F)c1)n2C1CCN(C2CCN(c3ccc4c(c3)C(=O)N(C3CCC(=O)NC3=O)C4=O)CC2)CC1` (stereo partly specified), for which the Activity in [1] turned out to be 38%; in test [2] it was 9%; in test [3], 5%.

Turning to `Cc1noc(C)c1-c1ccc2c(c1)nc([C@@H]1CCCC(=O)N1c1ccc(F)c(F)c1)n2C1CCN(C(=O)CCOCCOCCNc2ccc3c(c2)C(=O)N(C2CCC(=O)NC2=O)C3=O)CC1` (stereo partly specified), the Activity in test [1] was 29%; in test [2], under 1%; in test [3], under 1%.

One may read the IC50 as the midpoint of a concentration-inhibition curve. As to `CC(=O)N1CCC(n2c([C@@H]3CCCC(=O)N3c3ccc(F)c(F)c3)nc3cc(-c4c(C)noc4C)ccc32)CC1`, the Activity in the test on SK-HEP1 [4] was determined as 117%; in test [6], 97%; in test [7], 105%; with SK-HEP1 [8], 101%. Further, the outcome (in the test with Mus musculus; in [9]) was inactive. Also, the values for the IC50 (in [5]; in [10]; in the test on SK-HEP1 [11]) were 0.026 µM, over 20 µM and 4.36 µM, respectively.

On to `Cc1noc(C)c1-c1ccc2c(c1)nc([C@@H]1CCCC(=O)N1c1ccc(F)c(F)c1)n2C1CCN(C(=O)CNc2ccc3c(c2)C(=O)N(C2CCC(=O)NC2=O)C3=O)CC1` (stereo partly specified), for which the Activity is 3% in test [1], under 1% in [2] and 2% in test [3].

For `Cc1noc(C)c1-c1ccc2c(c1)nc([C@@H]1CCCC(=O)N1c1ccc(F)c(F)c1)n2C1CCN(C(=O)CCOCCOCCOCCNc2cccc3c2C(=O)N(C2CCC(=O)NC2=O)C3=O)CC1` (stereo partly specified), the Activity is 8% in test [1], under 1% in [2] and under 1% in test [3].

With `Cc1noc(C)c1-c1ccc2c(c1)nc([C@@H]1CCCC(=O)N1c1ccc(F)c(F)c1)n2C1CN(C2CN(c3cccc4c3C(=O)N(C3CCC(=O)NC3=O)C4=O)C2)C1` (stereo partly specified), the Activity was 23% in test [1], 3% in test [2] and under 1% in test [3].

For `CO[C@H]1CC[C@H](n2c([C@@H]3CCCC(=O)N3c3ccc(F)c(F)c3)nc3cc(-c4c(C)noc4C)ccc32)CC1` [INOBRODIB], the Activity with SK-HEP1 [4] stood at 95%; in the test on SK-HEP1 [8], 96%. In addition, the results for the IC50 (in test [10]; in the test on SK-HEP1 [11]) were 9.7 µM and 4.68 µM, respectively.

Turning to `Cc1noc(C)c1-c1ccc2c(c1)nc([C@@H]1CCCC(=O)N1c1ccc(F)c(F)c1)n2C1CCN(C(=O)CCOCCNc2cccc3c2C(=O)N(C2CCC(=O)NC2=O)C3=O)CC1` (stereo partly specified), the Activity in test [1] was 15%; in test [2], under 1%; in test [3] it was under 1%.

As to `Cc1noc(C)c1-c1ccc2c(c1)nc([C@@H]1CCCC(=O)N1c1ccc(F)c(F)c1)n2C1CCN(C2CN(c3cccc4c3C(=O)N(C3CCC(=O)NC3=O)C4=O)C2)CC1` (stereo partly specified), the Activity is 4% in [1], under 1% in test [2] and under 1% in test [3].

Consider `Cc1noc(C)c1-c1ccc2c(c1)nc([C@@H]1CCCC(=O)N1c1ccc(F)c(F)c1)n2C1CCN(C(=O)CCOCCOCCOCCNc2ccc3c(c2)C(=O)N(C2CCC(=O)NC2=O)C3=O)CC1` (stereo partly specified), for which the Activity in test [1] is 19%; in [2], under 1%; in test [3] it was under 1%.

Consider `Cc1noc(C)c1-c1ccc2c(c1)nc([C@@H]1CCCC(=O)N1c1ccc(F)c(F)c1)n2C1CCN(c2cccc3c2C(=O)N(C2CCC(=O)NC2=O)C3=O)CC1` (stereo partly specified), for which the figures for the Activity in test [1], in test [2] and in [3] were 39%, under 1% and under 1%, respectively.

Turning to `CC(=O)N1CC(n2c([C@@H]3CCCC(=O)N3c3ccc(F)c(F)c3)nc3cc(-c4c(C)noc4C)ccc32)C1`, in [5], the IC50 amounted to 0.025 µM.

`Cc1noc(C)c1-c1ccc2c(c1)nc([C@@H]1CCCC(=O)N1c1ccc(F)c(F)c1)n2C1CCN(C(=O)CNc2cccc3c2C(=O)N(C2CCC(=O)NC2=O)C3=O)CC1` (stereo partly specified): the Activity in test [1] is 18%; in [2], under 1%; in [3] it was under 1%.

For the molecule `Cc1noc(C)c1-c1ccc2c(c1)nc([C@@H]1CCCC(=O)N1c1ccc(F)c(F)c1)n2C1CN(C2CCN(c3ccc4c(c3)C(=O)N(C3CCC(=O)NC3=O)C4=O)CC2)C1` (stereo partly specified), the Activity in test [1] was 26%; in test [2] it was 4%; in test [3], under 1%.

In the case of `CNC(=O)N1CCc2c(c(N3CCCc4cc(-c5cnn(C)c5)c(C(F)F)cc43)nn2C2CCN(C(=O)CCOCCOCCOCCOCCNc3ccc4c(c3)C(=O)N(C3CCC(=O)NC3=O)C4=O)CC2)C1` (stereo unspecified), the results for the Activity in test [1], in test [2] and in [3] were 18%, 3% and 7%, respectively. The IC50 (in test [10]; with SK-HEP1 [11]) was over 20 µM each time.

In the case of `Cc1noc(C)c1-c1ccc2c(c1)nc([C@@H]1CCCC(=O)N1c1ccc(F)c(F)c1)n2C1CN(C2CCN(c3cccc4c3C(=O)N(C3CCC(=O)NC3=O)C4=O)CC2)C1` (stereo partly specified), the Activity in test [1] is 28%; in [2], under 1%; in [3], 8%.

As for `Cc1noc(C)c1-c1ccc2c(c1)nc([C@@H]1CCCC(=O)N1c1ccc(F)c(F)c1)n2C1CCN(C(=O)CCOCCOCCOCCOCCNc2cccc3c2C(=O)N(C2CCC(=O)NC2=O)C3=O)CC1` (stereo partly specified), the Activity in [1] was 49%; in test [2], under 1%; in test [3] it was under 1%.

For `Cc1noc(C)c1-c1ccc2c(c1)nc([C@@H]1CCCC(=O)N1c1ccc(F)c(F)c1)n2C1CCN(C(=O)CCOCCOCCOCCOCCNc2ccc3c(c2)C(=O)N(C2CCC(=O)NC2=O)C3=O)CC1` (stereo partly specified), the Activity in test [1] is 28%; in test [2], under 1%; in test [3], under 1%.

Regarding `Cc1noc(C)c1-c1ccc2c(c1)nc([C@@H]1CCCC(=O)N1c1ccc(F)c(F)c1)n2C1CCN(C(=O)CCOCCOCCNc2cccc3c2C(=O)N(C2CCC(=O)NC2=O)C3=O)CC1` (stereo partly specified), the Activity in [1] is 25%; in test [2], under 1%; in test [3], 2%.
